In ChEMBL document CHEMBL1156829 (Proc Natl Acad Sci U S A, 2008):

Experiments:
[1] = NOVARTIS: Cytotoxicity against human hepatocellular carcinoma cell line (Huh7); assay type: toxicity, cell-based, Huh-7; conditions: Huh7 cells (hepatocellular carcinoma cell line)
Plasmodium falciparum [2] = test: NOVARTIS: Inhibition of Plasmodium falciparum 3D7 (drug-susceptible) proliferation in erythrocyte-based infection assay; assay type: functional, organism-based; conditions: Plasmodium falciparum, 3D7
Plasmodium falciparum [3] = test: NOVARTIS: Inhibition of Plasmodium falciparum W2 (drug-resistant) proliferation in erythrocyte-based infection assay; assay type: functional, organism-based; conditions: Plasmodium falciparum, W2; read-out: EC50

SMILES | CC50 [1] | EC50 (Plasmodium falciparum [2]) | EC50 (Plasmodium falciparum [3])
CC(=O)NCCc1ccc(O)cc1 | > 10000 nM | > 1670 nM | < 13.7 nM
CC1CNC2C(C)C3C(CC4C5CCC6CC(N)CCC6(C)C5CCC43C)OC2(O)C1 (centres undefined) | > 10000 nM | 863 nM | < 12.7 nM
CCN(CC)CCCC(C)N=c1cc(C=Cc2ccccc2Cl)[nH]c2cc(Cl)ccc12 (centres undefined) | 18800 nM | 50.7 nM | 25.7 nM
CCc1cccc2c(C#N)cn(CC(=O)Nc3ccc(OC)cc3)c12 | > 100000 nM | 225 nM | 126 nM
CCOc1cc2c(cc1OCC)C(c1cc(OC)c(O)cc1Cl)NCC2 (centres undefined) | 74200 nM | 362 nM | 95.8 nM
CCOc1ccc(-n2c(=S)sc3c(=O)n(-c4ccc(C)cc4)c(SCC(=O)Nc4cc(OC)ccc4OC)nc32)cc1 | > 100000 nM | 285 nM | 123 nM
CC=Cc1n(C)c2ccccc2[n+]1C | > 100000 nM | 613 nM | 129 nM
CCN(CC)CCCC(C)N=c1cc(C=Cc2ccc([N+](=O)[O-])cc2)[nH]c2ccc(OC)cc12 (centres undefined) | 11700 nM | 20.9 nM | 14 nM
COc1ccc(C=C2SC(=N)N(c3ccccc3OC)C2=O)cc1 | 62900 nM | 163 nM | 87.1 nM
Oc1c(C(Nc2ccccn2)c2cccc(Cl)c2Cl)ccc2cccnc12 (centres undefined) | > 100000 nM | 174 nM | 132 nM
N=c1c2c(n(Cc3ccc([N+](=O)[O-])cc3)c3c1CCC3)CCCC2 | > 100000 nM | 121 nM | 130 nM
FC(F)(F)c1cccc(NC(=S)N2CCCC2c2ccccc2C(F)(F)F)c1 (centres undefined) | > 10000 nM | 214 nM | < 13 nM
Cc1ccc(CSCc2ccc(C(=O)NC3CC3)o2)cc1 | > 100000 nM | 418 nM | 133 nM
CC(NCc1ccccc1)c1cc(Cl)ccc1O (centres undefined) | 73300 nM | 592 nM | 97.2 nM
CCCCC(CC)C(=O)NCCCCNc1ccnc2cc(Cl)ccc12 (centres undefined) | > 10100 nM | 297 nM | < 13.4 nM
CC(=O)NC1=NN(C(C)=O)C(C)(c2ccc([N+](=O)[O-])cc2)S1 (centres undefined) | > 100000 nM | 497 nM | 132 nM
CCOc1ccc(C2c3[nH]c4ccccc4c3CCN2C(=O)c2cc3cc(Br)ccc3o2)cc1 (centres undefined) | > 100000 nM | 316 nM | 135 nM
CCOC(=O)C1=C(C)NC2=C(C(=O)C(C(=O)OCC)C(c3ccc(OC)cc3)C2)C1c1ccc([N+](=O)[O-])cc1 (centres undefined) | > 100000 nM | 685 nM | 134 nM
C[n+]1oc(C=Cc2ccccc2)cc1C=Cc1ccccc1 | 21200 nM | 68.8 nM | 28.8 nM
CN(CCCNc1ccnc2cc(Cl)ccc12)C(=O)COCc1ccccc1 | > 10000 nM | 110 nM | < 13.5 nM
O=C(NCCCCNc1ccnc2cc(Cl)ccc12)c1cccc(C(F)(F)F)c1 | > 10000 nM | 171 nM | < 13.8 nM
O=C1C(N2CCCCC2)=C(N2CCCCC2)C(=O)c2ccccc21 | 24900 nM | 137 nM | 34.1 nM
CCOc1cc(C2CC(=O)NC3=C2C(=O)CC(C)(C)C3)ccc1OC(C)C (centres undefined) | > 100000 nM | 284 nM | 136 nM

SMILES | CC50 [1] | EC50 (Plasmodium falciparum [2]) | EC50 (Plasmodium falciparum [3])
CC(C)(C)NC(=O)c1cn(C2CCCCC2)cc(C(=O)NC2CCN(Cc3ccccc3)C2)c1=O (centres undefined) | > 10000 nM | 188 nM | < 12.8 nM
O=C(Nc1ccc(C(=O)Nc2cccc(C3=NCCN3)c2)cc1)c1ccc(C2=NCCN2)cc1 | > 100000 nM | 193 nM | 128 nM
CC(C)(C)c1nn(-c2ccc(Cl)cc2)c2[nH]c(=O)c(CNCc3ccc(Cl)cc3)cc12 | > 100000 nM | 351 nM | 129 nM
CCN1CCCC(Nc2ccnc3cc4ccccc4cc23)C1 (centres undefined) | 3750 nM | 8.24 nM | 4.81 nM
CCOC(=O)c1cnc2c(OC)cccc2c1Nc1ccc(C(C)=O)cc1 | > 100000 nM | 592 nM | 123 nM
Nc1cc(C(=O)Nc2ccc(C3=NCCCN3)cc2)ccc1C(=O)Nc1ccc(C2=NCCCN2)cc1 | > 100000 nM | 190 nM | 123 nM
COc1ccc(C2CC(=O)C3=C(C2)NC(=O)CC3c2ccc(C(F)(F)F)cc2)cc1OC (centres undefined) | > 100000 nM | 182 nM | 123 nM
O=C(NC(=CC=Cc1ccccc1)C(=O)N1CCOCC1)c1ccccc1 | > 100000 nM | 3860 nM | 122 nM
Cc1noc(C)c1S(=O)(=O)N(Cc1ccccc1)CC(O)CN1CCC(NC(=O)c2ccc(F)cc2)C1 (centres undefined) | > 10000 nM | 447 nM | < 12.1 nM
CCOc1cc(C2CC(=O)NC3=C2C(=O)CC(c2cc(OC)ccc2OC)C3)ccc1O (centres undefined) | > 100000 nM | 431 nM | 123 nM
c1ccc2cc3c(Nc4ccc(N5CCOCC5)cc4)ccnc3cc2c1 | 69500 nM | 672 nM | 83.9 nM
O=C1N(Cc2cc3ccccc3s2)CC2CN(Cc3ccc(F)c(F)c3)CCN12 (centres undefined) | > 10000 nM | 239 nM | < 13.9 nM
COc1ccccc1N1CCN(Cc2cc(C)c(C)cc2O)CC1 | 58000 nM | 383 nM | 80.5 nM
COC(=O)c1ccc(N(C(=O)Cc2c[nH]c3ccccc23)C(C(=O)NC2CCCCC2)c2cccnc2)cc1 (centres undefined) | > 100000 nM | 232 nM | 132 nM
CC(C)CN1C(=O)c2ccccc2C(C(=O)Nc2ccc(F)c(Cl)c2)C1c1cccs1 (centres undefined) | > 95200 nM | 121 nM | 120 nM
CC(=O)c1cccc(NC(=O)NC2CC3CCCC(C2)N3CCc2ccccc2)c1 (centres undefined) | > 10000 nM | 17.3 nM | 12.6 nM
COc1ccc(C2CC(=O)C3=C(C2)NC(C)=C(C(=O)OC2CCCC2)C3c2ccc(Cl)cc2)cc1 (centres undefined) | > 100000 nM | 260 nM | 125 nM
Cc1cc(F)ccc1NC(=O)C(C)n1c2ccccc2c2nc(=O)cc(C)n21 (centres undefined) | > 100000 nM | 283 nM | 126 nM
Nc1nonc1-n1nnc(C(=O)NN=Cc2ccc(F)c(Br)c2)c1-c1ccc([N+](=O)[O-])cc1 | > 100000 nM | 292 nM | 128 nM
O=C(Nc1cc(Cl)cc(Cl)c1)Nc1ccccc1C(=O)NCC1CC1 | > 10000 nM | > 1180 nM | < 12.4 nM
Cc1ccc2c(c1)C(C)(c1ccc(Cl)cc1)CC(C)(C)N2C(=O)COc1ccc2ccccc2c1 (centres undefined) | > 100000 nM | > 12500 nM | 124 nM
COc1cc(NC(C)CCCN(Cc2ccc(N(C)C)cc2)S(=O)(=O)c2c(C)cc(C)cc2C)c2ncccc2c1 (centres undefined) | > 10600 nM | 533 nM | < 13.4 nM
CCOC(=O)C1=C(C)NC2=C(C(=O)CC(c3ccc(OC)c(OC)c3)C2)C1c1ccc(SC)cc1 (centres undefined) | > 100000 nM | 302 nM | 127 nM

SMILES | CC50 [1] | EC50 (Plasmodium falciparum [2]) | EC50 (Plasmodium falciparum [3])
COc1ccc(C=NNc2nc3cc(Cl)ccc3[nH]2)cc1OC | > 89800 nM | 239 nM | 111 nM
CCOC(=O)C(=CNc1ccc(I)cn1)C(=O)OCC | > 10000 nM | 190 nM | < 12.6 nM
COC(=O)[C@@H]1C[C@@H](NC(=O)c2ccc(OC)cc2OC)CN1Cc1ccc(C)cc1C | > 100000 nM | 303 nM | 126 nM
COc1ccc(-c2nc(SCCCCC(=O)N3CCN(C(c4ccccc4)c4ccccc4)CC3)[nH]c2-c2ccc(OC)cc2)cc1 | > 10000 nM | > 1180 nM | < 13.4 nM
c1ccc(C2=NN(c3ccccc3)N(c3ccccc3)N2)cc1 | > 100000 nM | 137 nM | 129 nM
O=C(C(Cc1ccc(O)cc1)c1ccccc1)N1CCC(n2c(Cc3ccc(F)cc3)nc3cccnc32)CC1 (centres undefined) | > 100000 nM | 351 nM | 138 nM
Cc1cccc(N(C)c2nc3ccccc3c3nnc(C)n23)c1 | > 100000 nM | 119 nM | 134 nM
COCCNC(=O)[C@@H]1C[C@@H](Sc2nc3ccccc3[nH]2)CN1Cc1ccc2ccccc2c1 | > 100000 nM | 638 nM | 135 nM
COC(=O)C1C(=O)C2=C(CC1C)NC(=O)CC2c1ccc(Cl)cc1Cl (centres undefined) | > 100000 nM | 991 nM | 128 nM
CC1(C)C(=O)C2(CCCCC2)C(=O)OC1/C=C/c1ccccc1 (centres undefined) | > 10000 nM | > 1250 nM | 12.3 nM
OC1=C2C(=Nc3ccccc3SC2c2ccc(Br)cc2)c2ccccc21 (centres undefined) | > 48000 nM | 337 nM | 57.7 nM
O=C(Nc1cc(C(=O)N2CCC(Cc3ccccc3)CC2)ccc1N1CC2CC(C1)c1cccc(=O)n1C2)c1cccs1 (centres undefined) | 49700 nM | 74.4 nM | 64.4 nM
COc1ccc(C=Cc2ccc3ccccc3[n+]2C)cc1OC | > 100000 nM | 441 nM | 138 nM
Oc1ccccc1Nc1nc(-c2ccccc2O)nc2ccccc12 | > 100000 nM | 577 nM | 136 nM
O=C(Nc1ccc(C2=NCCN2)cc1)c1ccc(NC(=O)c2ccc(C3=NCCN3)cc2)cc1 | > 10000 nM | 81.9 nM | 13.5 nM
Cc1ccc(-n2c(-c3ccccc3)cc(C=NNC(=O)c3cccc(O)c3)c2-c2ccccc2)cc1 | > 100000 nM | 150 nM | 139 nM
N=c1c2c(n(Cc3ccc(Cl)cc3)c3c1CCC3)CCC2 | > 100000 nM | 62.7 nM | 125 nM
CCOC(=O)c1cnc2c3c(ccc2c1O)CCCC3 | > 100000 nM | 133 nM | 137 nM
CC(C)CN1C(=O)c2ccccc2C(C(=O)Nc2ccc(F)cc2F)C1c1cccs1 (centres undefined) | > 100000 nM | 219 nM | 129 nM
O=C(CCc1ccccc1)NCCCCNc1ccnc2cc(Cl)ccc12 | > 10000 nM | 142 nM | < 13.8 nM
O=C(C=Cc1cccnc1)C12CC3CC(CC(C3)C1)C2 | > 100000 nM | 216 nM | 122 nM
CN(C)c1cc[n+](CC(=O)c2ccc(Cl)cc2)cc1 | > 100000 nM | 168 nM | 132 nM
